Measurements taken from US8598078B2, “Condensed anthran I lami de derivatives as insecticides” (Syngenta Crop Protection, LLC, priority 2007, dated 2013).
Read-outs that look alike come from different tables or passages of the source.

What was measured:
Assay type in all cases: in vivo
[1] = test system: Spodoptera littoralis (Egyptian cotton leafworm); experiment: Activity against Spodoptera littoralis (larvicide, feeding/residual contact activity, preventive), cotton leaf discs; details: foliar, 72 h, read-out: activity (mortality, repellent effect, feeding behaviour, growth regulation)
Source text: Activity Against Spodoptera littoralis (Egyptian Cotton Leafworm)
(§1) (Larvicide, Feeding/Residual Contact Activity, Preventive)
Cotton leaf discs were placed on agar in a 24-well microtiter plate and sprayed with test solutions. After drying, the leaf discs were infested with 5 L1 larvae. The samples were checked for mortality, repellent effect, feeding behaviour, and growth regulation 3 days after treatment.

[2] = test system: Heliothis virescens (tobacco budworm); experiment: Activity against Heliothis virescens (ovo-larvicide, feeding/contact activity, curative), eggs on artificial diet; details: read-out: activity (egg mortality, larval mortality, growth regulation)
Experimental: Activity Against Heliothis virescens (Tobacco Budworm)
(Ovo-Larvicide, Feeding/Contact Activity, Curative)
Eggs (0-24 h old) were placed in 24-well microtiter plate on artificial diet and treated with test solutions by pipetting. After an incubation period of 4 days, samples were checked for egg mortality, larval mortality, and growth regulation.

[3] = test system: Plutella xylostella (diamond back moth); experiment: Plutella xylostella (larvicide, feeding/residual contact activity, preventive), artificial diet MTP; details: 120 h, read-out: activity (larval mortality, antifeedant, growth regulation)
Experimental: Plutella xylostella (Diamond Back Moth)
as §1
24-well microtiter plate (MTP) with artificial diet was treated with test solutions by pipetting. After drying, the MTP's were infested with larvae (L2) (10-15 per well). After an incubation period of 5 days, samples were checked for larval mortality, antifeedant and growth regulation.

[4] = test system: Myzus persicae (green peach aphid); experiment: Activity against Myzus persicae (mixed population, feeding/residual contact activity, preventive), sunflower leaf discs; details: foliar, 144 h, read-out: activity (mortality and special effects)
Experimental: (§2) Activity Against Myzus persicae (Green Peach Aphid)
(§3) (Mixed Population, Feeding/Residual Contact Activity, Preventive)
Sunflower leaf discs were placed on agar in a 24-well microtiter plate and sprayed with test solutions. After drying, the leaf discs were infested with an aphid population of mixed ages. After an incubation period of 6 days, samples were checked for mortality and special effects (e.g. phytotoxicity).

[5] = test system: Myzus persicae (green peach aphid); experiment: Activity against Myzus persicae (mixed population, systemic/feeding activity, curative), pea seedling roots in test solution; details: 144 h, read-out: activity (mortality and special effects on the plant)
Source text: as §2
(Mixed Population, Systemic/Feeding Activity, Curative)
Roots of pea seedlings, infested with an aphid population of mixed ages, were placed directly in the test solutions. 6 days after introduction, samples were checked for mortality and special effects on the plant.

[6] = test system: Thrips tabaci (onion thrips); experiment: Activity against Thrips tabaci (mixed population, feeding/residual contact activity, preventive), sunflower leaf discs; details: foliar, 144 h, read-out: activity (mortality and special effects)
Experimental: Activity Against Thrips tabaci (Onion Thrips)
as §3
Sunflower leaf discs were placed on agar in a 24-well microtiter plate and sprayed with test solutions. After drying, the leaf discs were infested with a thrips population of mixed ages. After an incubation period of 6 days, samples were checked for mortality and special effects (e.g. phytotoxicity).

[7] = test system: Diabrotica balteata (corn root worm); experiment: Diabrotica balteata (larvicide, feeding/residual contact activity, preventive), artificial diet MTP; details: 120 h, read-out: activity (larval mortality, antifeedant, growth regulation)
Experimental: Diabrotica balteata (Corn Root Worm)
as §1
24-well microtiter plate (MTP) with artificial diet was treated with test solutions by pipetting. After drying, the MTP's were infested with larvae (L2) (6-10 per well). After an incubation period of 5 days, samples were checked for larval mortality, antifeedant and growth regulation.

[8] = 400 ppm, L1 larvae on sprayed cotton leaf discs, 3 days after treatment
[9] = 400 ppm, eggs 0-24 h old on artificial diet, 4 days incubation
[10] = 400 ppm, L2 larvae on treated artificial diet, 5 days incubation
[11] = 400 ppm, mixed-age aphids on sprayed sunflower leaf discs, 6 days incubation
[12] = 400 ppm, systemic, roots of infested pea seedlings in test solution, 6 days

Measured: mortality at 400 ppm

COCn1cc2cc(C)c(NC(=O)c3cc(OC)nn3-c3ncccc3Cl)c(C(=O)NC(C)C)c2n1 [P.3]
> 80%: [1] | [2] | [3] | [4] | [5] | [6]

COCn1cc2cc(Cl)c(NC(=O)c3cc(C(F)(F)F)nn3-c3ncccc3Cl)c(C(=O)NC(C)C)c2n1 [P.6]
> 80%: [1] | [2] | [3] | [7] | [4] | [5] | [6]

C#CCn1cc2cc(C)c(NC(=O)c3cc(OC)nn3-c3ncccc3Cl)c(C(=O)NC(C)C)c2n1 [P.7]
> 80%: [1] | [2] | [3] | [7] | [4] | [5] | [6]

C=CCn1cc2cc(C)c(NC(=O)c3cc(OC)nn3-c3ncccc3Cl)c(C(=O)NC(C)C)c2n1 [P.8]
> 80%: [1] | [2] | [3] | [7] | [4] | [5] | [6]

COc1cc(C(=O)Nc2c(C)cc3cn(CC(F)(F)F)nc3c2C(=O)NC(C)C)n(-c2ncccc2Cl)n1 [P.10]
> 80%: [1] | [2] | [3] | [4] | [6]

COC(=O)N(C)Cn1cc2cc(C)c(NC(=O)c3cc(OC)nn3-c3ncccc3Cl)c(C(=O)NC(C)C)c2n1 [P.11]
> 80%: [1] | [2] | [3] | [7] | [4] | [5] | [6]

COCCOCn1ncc2cc(C)c(NC(=O)c3cc(OC)nn3-c3ncccc3Cl)c(C(=O)NC(C)C)c21 [P.13, 6-{[2-(3-chloro-pyridin-2-yl)-5-methoxy-2H-pyrazole-3-carbonyl]-amino}-1-(2-methoxy-ethoxymethyl)-5-methyl-1H-indazole-7-carboxylic acid isopropylamide]
> 80%: [1] | [2] | [3] | [4] | [5] | [6]

COc1cc(C(=O)Nc2c(C)cc3cnn(CC#N)c3c2C(=O)NC(C)C)n(-c2ncccc2Cl)n1 [P.14]
> 80%: [1] | [2] | [3] | [4] | [5] | [6]

COC(=O)N(C)Cn1ncc2cc(C)c(NC(=O)c3cc(OC)nn3-c3ncccc3Cl)c(C(=O)NC(C)C)c21 [P.15]
> 80%: [1] | [2] | [3] | [7] | [4] | [5] | [6]

CCS(=O)(=O)N(C)Cn1cc2cc(C)c(NC(=O)c3cc(OC)nn3-c3ncccc3Cl)c(C(=O)NC(C)C)c2n1 [P.17]
> 80%: [1] | [2] | [3] | [4] | [5]

CCS(=O)(=O)N(C)Cn1ncc2cc(C)c(NC(=O)c3cc(OC)nn3-c3ncccc3Cl)c(C(=O)NC(C)C)c21 [P.18]
> 80%: [1] | [2] | [3] | [4] | [5]

CCCCCCOCCOC(=O)n1cc2cc(C)c(NC(=O)c3cc(OC)nn3-c3ncccc3Cl)c(C(=O)NC(C)C)c2n1 [P.24]
> 80%: [1] | [2] | [3] | [7] | [4] | [5]

CCCCCCCC/C=C\CCCCCCCC(=O)n1cc2cc(C)c(NC(=O)c3cc(OC)nn3-c3ncccc3Cl)c(C(=O)NC(C)C)c2n1 [P.25]
> 80%: [1]; [8] | [2]; [9] | [3]; [10] | [4]; [11] | [6]; 400 ppm, mixed-age thrips on sprayed sunflower leaf discs, 6 days incubation

CCCCCCCCCCOCCOC(=O)n1cc2cc(C)c(NC(=O)c3cc(OC)nn3-c3ncccc3Cl)c(C(=O)NC(C)(C)C)c2n1 [P.28]
> 80%: [1]; [8] | [2]; [9] | [3]; [10] | [4]; [11] | [5]; [12]

CCCCCCCCCCCCCCCCCCOCCOC(=O)n1cc2cc(C)c(NC(=O)c3cc(OC)nn3-c3ncccc3Cl)c(C(=O)NC(C)C)c2n1 [P.30]
> 80%: [1]; [8] | [2]; [9] | [3]; [10] | [7]; [10] | [4]; [11] | [5]; [12]

COc1cc(C(=O)Nc2c(C)cc3cn(Cc4ccccc4)nc3c2C(=O)NC(C)C)n(-c2ncccc2Cl)n1 [P.33]
> 80%: [1] | [2] | [3] | [7] | [4] | [6]

COc1ccc(Cn2cc3cc(C)c(NC(=O)c4cc(OC)nn4-c4ncccc4Cl)c(C(=O)NC(C)C)c3n2)cc1 [P.34, 6-{[2-(3-chloro-pyridin-2-yl)-5-methoxy-2H-pyrazole-3-carbonyl]-amino}-2-(4-methoxy-benzyl)-5-methyl-2H-indazole-7-carboxylic acid isopropyl amide]
> 80%: [1] | [2] | [3] | [4] | [5] | [6]

CCCCN(CCCC)C(=O)n1cc2cc(C)c(NC(=O)c3cc(OC)nn3-c3ncccc3Cl)c(C(=O)NC(C)C)c2n1 [P.35]
> 80%: [2] | [3] | [6]

COc1cc(C(=O)Nc2c(C)cc3cn(C(=O)N(C)c4ccccc4)nc3c2C(=O)NC(C)C)n(-c2ncccc2Cl)n1 [P.36]
> 80%: [2] | [3] | [5] | [6]
